Read-outs that look alike come from different tables or passages of the source.
Tests used:
ROSS 308 broiler chicks = test: Broiler feeding trial with phytol supplemented feed; type: in vivo, chicken; conditions: 42 days
Protocol: (§1) In the present specification the level of the PPAR/RXR heterodimer activator is expressed as a percentage of total FAME fatty acids. These total FAME fatty acids comprise those fatty acids with a linear chain of at least 12 carbons and are measured by the so-called FAME technique, which is well known for the skilled person and wherein, first, fatty acid methyl esters are prepared which are, subsequently, analysed via gas chromatography. The FAME procedure used for determining the results obtained by the present invention was as follows. Lipids were extracted from the samples using a dissolving solution that is specific to each sample type. Nonadecanoic acid (19:0) was added as an internal standard. The two-step methylation procedure consisted of using a basic reagent NaOH/methanol followed by an acid reagent HCI/methanol. The fatty acid methyl esters (FAME) were analyzed by GC (HP 6890, Hewlett-Packard, Brussels, Belgium) using a CP-Sil88 column for FAME (100 m×250 μm×0.25 μm) (Chrompack, Middelburg, The Netherlands). The GC conditions were as adapted to each sample type. Peaks were identified by comparison of retention times with those of the corresponding standards (Sigma, Botnew, Belgium; Nu-Chek-Prep, Elysian, M N). Identification of the peaks included fatty acids between 12:0 and 22:6 and 5 different CLA isomers and phytanic acid and pristanic acid.
ROSS 308 broiler chicks were raised, lege artis, on an ad libitum diet, containing phytol at 2% by weight of feed that, characteristically, contains about 10% of humidity. The chicks consumed an average of about 0.1 kg dry weight of the feed per day. The phytol in the diet replaced 2% of the soybean oil included in feeds formulated based on the INVE Nutritional Requirement standard formula for a grower feed (formula 120). Please refer to the following tables for the feed formula and for its chemical composition.
The animals were slaughtered after 42 days and their tissues sampled for analysis.

ISABROWN layers = test: Layer feeding trial with phytol supplemented feed; type: in vivo; conditions: 2% phytol in feed, compared with standard layer diet
Hybrid boars = test: Pork finishing trial with phytol sprayed feed; type: in vivo, pig
Protocol: as §1
Hybrid boars weighing in at about 80 kg were kept lege artis and fed a standard finishing granulated feed sprayed on with phytol at a level of 2% of feed weight. The feed was formulated and produced by Schatteman in Wetteren, Belgium and contained on average about 7% of humidity. On spraying, the feed readily absorbed this oily substance. […] Tissue samples were taken and the carcass quality assessed. The carcasses were further butchered in the usual fashion to chops, loins, sausages and the like and the meat quality of the prime cuts was assessed.
The quality was assessed objectively using the following parameters: % meat on the carcass, type-index, meat class, meat moisture, meat color, meat temperature and meat pH change.

[1] = test system: Tiger shrimp (Penaeus Monodon); test: Shrimp feeding trial with phytol supplemented diet; type: in vivo; conditions: 2% phytol diet, 4 weeks
laboratory animals = conditions: Steinberg 1966, cited from earlier work
RXR = conditions: cell research; Kitareewan 1996; cited from earlier work
PPAR alpha = biological target: T1, PPAR alpha (Homo sapiens, UniProt Q07869); conditions: cited from earlier work
T1 sequence (Q07869 1-468): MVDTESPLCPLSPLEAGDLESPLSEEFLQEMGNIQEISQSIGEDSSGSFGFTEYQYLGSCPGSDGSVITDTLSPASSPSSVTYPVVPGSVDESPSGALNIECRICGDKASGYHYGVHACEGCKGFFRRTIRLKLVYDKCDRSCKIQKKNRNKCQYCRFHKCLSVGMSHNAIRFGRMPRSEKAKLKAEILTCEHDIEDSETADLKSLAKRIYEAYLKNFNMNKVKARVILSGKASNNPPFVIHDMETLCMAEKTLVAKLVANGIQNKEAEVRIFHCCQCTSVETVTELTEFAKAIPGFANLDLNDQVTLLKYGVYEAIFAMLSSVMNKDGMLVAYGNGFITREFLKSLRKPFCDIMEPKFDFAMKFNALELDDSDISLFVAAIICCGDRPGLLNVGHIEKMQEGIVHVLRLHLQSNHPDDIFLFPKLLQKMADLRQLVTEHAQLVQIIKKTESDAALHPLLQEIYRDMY

egg yolk = conditions: cited from earlier work
Chicken meat = conditions: max 1.5% CLA in diet, Szymczyk 2001; cited from earlier work
Carp = conditions: max 1% CLA in diet, Choi 1999; cited from earlier work
striped bass = conditions: max 0.6% CLA in diet, Twibell 2000; cited from earlier work
yellow perch = conditions: max 0.6% CLA in diet, Twibell 2001; cited from earlier work
lean pork = conditions: cited from earlier work
PPAR gamma = biological target: T2, PPAR gamma (Homo sapiens, UniProt P37231); conditions: Houseknecht 1998, Yu 2002; cited from earlier work
T2 sequence (P37231 1-505): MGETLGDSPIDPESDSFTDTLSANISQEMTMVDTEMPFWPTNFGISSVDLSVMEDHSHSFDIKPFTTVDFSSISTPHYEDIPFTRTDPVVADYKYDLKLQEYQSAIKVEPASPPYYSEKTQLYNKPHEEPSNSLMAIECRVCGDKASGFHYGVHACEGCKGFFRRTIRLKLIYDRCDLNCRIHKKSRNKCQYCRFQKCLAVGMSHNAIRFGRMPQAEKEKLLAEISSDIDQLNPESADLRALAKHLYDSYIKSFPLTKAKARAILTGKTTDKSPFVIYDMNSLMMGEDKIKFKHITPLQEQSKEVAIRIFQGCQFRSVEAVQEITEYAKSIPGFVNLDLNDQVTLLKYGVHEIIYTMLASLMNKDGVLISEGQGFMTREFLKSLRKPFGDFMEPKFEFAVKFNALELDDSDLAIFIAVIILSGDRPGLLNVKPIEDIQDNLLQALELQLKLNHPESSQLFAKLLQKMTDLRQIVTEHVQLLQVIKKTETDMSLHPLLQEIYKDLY

C/C(=C\CO)CCC[C@H](C)CCC[C@H](C)CCCC(C)C [phytol]
mortality or morbidity (ROSS 308 broiler chicks; 2% phytol in feed, compared with standard broiler feed): no difference | PhA average level in breast meat (ROSS 308 broiler chicks; ROSS 308, chicken, in vivo): 2.6 % of total fatty acids | content of PhA in the breast meat, one subgroup (ROSS 308 broiler chicks; ROSS 308, chicken, in vivo): around 1.9% | content of PhA in the breast meat, other subgroup (ROSS 308 broiler chicks; ROSS 308, chicken, in vivo): around 3.6% | mortality nor morbidity (ISABROWN layers): no difference | sickness or death (Hybrid boars; 2% phytol feed, entire finishing period): no animals got sick or died | content of PhA and PrA in the pork meat (Hybrid boars; male, hybrid, pig, in vivo, 1 month): 2.3 % of total FAME fatty acids | feeding behavior or level of activity (Hybrid boars; pig, in vivo): no difference | survival rate ([1]; vs standard diet): no difference | growth (weight at end of feeding trial) ([1]; start 0.7 g): 2.05 g | morbidity (growth retardation, weight loss and lethargy) (laboratory animals; from levels of supplementation of 1% of diet weight on): substantial morbidity | mortality (laboratory animals; levels of 5% of diet weight): serious mortality rates

CC(C)CCC[C@@H](C)CCC[C@@H](C)CCCC(C)CC(=O)O (some centres unmarked) [PhA, tetramethylhexadecanoic acid]
RXR ligand (RXR): ligand of RXR | PPAR alpha activation (PPAR alpha; physiologic concentrations, Ellinghaus 1999): potent activator of PPAR alpha

conjugated linoleic acid [CLA]
max of TFA (maximum level of CLA in product as percent of total fatty acids) (egg yolk; max 2% CLA in diet, Shafer 2001): 7.95% | max of TFA (maximum level of CLA in product as percent of total fatty acids) (egg yolk; max 3% CLA in diet, Raes 2002): 5.3% | max of TFA (maximum level of CLA in product as percent of total fatty acids) (egg yolk; max 5% CLA in diet, Chamruspollert 1999): 11.2% | max of TFA (maximum level of CLA in product as percent of total fatty acids) (Chicken meat): 10.27% | max of TFA (maximum level of CLA in product as percent of total fatty acids) (Carp): 13% | max of TFA (maximum level of CLA in product as percent of total fatty acids) (striped bass): 8.1% | max of TFA (maximum level of CLA in product as percent of total fatty acids) (yellow perch): 2.92% | max of TFA (maximum level of CLA in product as percent of total fatty acids) (lean pork; lean pork (>100 kg), max 1% CLA in diet, Thiel-Cooper 2001): 0.7% | max of TFA (maximum level of CLA in product as percent of total fatty acids) (lean pork; lean pork (>100 kg), max 5% CLA in diet, Joo 2002): 1.6% | max of TFA (maximum level of CLA in product as percent of total fatty acids) (lean pork; lean pork (up to 55 kg), max 1.4% CLA in diet, Ramsey 2001): 3.2% | PPAR alpha agonism (PPAR alpha; Moya-Camarena 1999): agonist of PPAR alpha | PPAR gamma agonism (PPAR gamma): agonist of PPAR gamma
